Drawing on a melting point compilation (Tetko et al.), this text covers melting point for 77 molecules.

SMILES strings stand for the structures.

By melting point is commonly meant the temperature, or range, at which the solid turns liquid.

The molecule `CCSc1ncccc1C(=O)NC(CCSC)C(=O)O` (configuration not stated) registered a melting point of 121 to 122 °C.

For `O=[N+]([O-])C=Cc1ccccc1C(F)(F)F`, the melting point fell in the range of 60 to 62 °C.

`CC(C)n1nnc2cc(C(=O)Cl)ccc21` came in with a melting point of 140 to 143 °C.

For the molecule `CCC1(CC)C(=O)NCC(C)C1=O` (configuration not stated), the melting point is 76 °C.

In turn, `O=C1O[C@H](C(Cl)(Cl)Cl)N2CCC[C@@H]12` (relative stereo) showed a melting point of 110 °C.

For `CC(C)(C)CC(C)(C)Nc1nc(N2CCOCC2)nc(N2CCOCC2)n1`, the melting point was 159 °C.

`CC1(C)C2CCC1(C)C(/N=C\c1ccc([N+](=O)[O-])cc1)C2/N=C/c1ccc([N+](=O)[O-])cc1` (configuration not stated): the melting point was determined as 170 °C.

The molecule `CC(CCC(=O)O)c1ccccc1` (configuration not stated) showed a melting point of 13 °C.

`COc1ccc(/C=N/n2c(S)nnc2C(F)(F)F)cc1` returned a melting point of 188 °C.

`COc1ccc2cc(Nc3ccc4c(c3)OCCO4)ccc2c1` gave a melting point of 102 °C.

Molecule `O=C1NC(=O)C(=Cc2ccc(Cl)cc2)C(=O)N1` returned a melting point of 243 °C.

As to `CCCCC(=O)c1ccc(F)cc1`, the melting point turned out to be 27 °C.

`S=C(Oc1ccccc1)Oc1ccccc1` displayed a melting point of 106 °C.

On to `COc1cc2c(cc1OC)C(C#N)C2` (configuration not stated), for which the melting point is 82 °C.

`CC1(C)OC(=O)C(=Cc2ccc(-c3ccccc3[N+](=O)[O-])o2)C(=O)O1` gave a melting point of 153 °C.

The molecule `Cc1oc(S(=O)(=O)N(C)C)cc1C(=O)O` registered a melting point of 169 °C.

The molecule `COC(=O)c1ccncc1` displayed a melting point of 12.1 °C.

The molecule `Fc1c(F)c(F)c(Sc2c(F)c(F)c(F)c(F)c2F)c(F)c1F` returned a melting point of 87 °C.

The molecule `Cc1ccc(F)cc1NC(N)=S` had a melting point of 120 to 123 °C.

Consider `CN1C(=O)CC[C@H]1c1cccnc1`, for which the melting point is 41 °C.

Molecule `CC(=O)OCC(=O)O` gave a melting point of 67.5 °C.

In turn, `Cc1cc(=O)oc2cc(O)c(Cl)cc12` came in with a melting point of 278 to 280 °C.

`O=C(c1ccccc1)c1noc(-c2ccc([N+](=O)[O-])cc2)c1S(=O)(=O)c1ccccc1`: the melting point is 165 °C.

For the molecule `CN1CCCN(c2ccc(C#N)cc2)CC1`, the melting point is 93 to 94 °C.

Molecule `N=C(N)N1CCc2ccccc2C1` came in with a melting point of 279 °C.

`CC(=O)O[C@H]1C[C@H]2[C@@H]3CCC4CCCC[C@]4(C)[C@H]3CC[C@]2(C)C1` (some centres not stated) registered a melting point of 108 °C.

Consider `C1=CCCCCCCCCCC1`, for which the melting point is -9 °C.

Molecule `CCOc1ccc2[nH]c(S)nc2c1` had a melting point of 249 °C.

For the molecule `Oc1ccc2cc(Br)ccc2c1Br`, the melting point was in the range of 105 to 107 °C.

`Cc1ccc(NC(=O)CC(C)c2ccc(C)cc2)cc1` (configuration not stated) registered a melting point of 105 °C.

Turning to `O=[N+]([O-])c1ccc(CBr)cc1`, the melting point was 99 °C.

For `Cc1oc(C(C)(C)C)cc1C(=O)Cl`, the melting point lay in the range of 41 to 44 °C.

For the molecule `Nc1ccc(/C(=C\c2ccccc2N)C(=O)O)cc1`, the melting point was found to be 186 °C.

`CCOC(=O)c1cc(-c2ccc(Br)s2)on1`: the melting point lay in the range of 51 to 53 °C.

Molecule `O=C1CCC(c2ccccc2)O1` (configuration not stated) gave a melting point of 36.5 °C.

As to `CC(=O)Oc1nn(-c2ccc(Br)cc2)cc1Br`, the melting point came out at 77 °C.

Molecule `Nc1cccc([N+](=O)[O-])c1N` had a melting point of 158 °C.

`CCCCCCCC(=O)c1ccccc1` came in with a melting point of 22.8 °C.

In the case of `Cc1cccc(NC(=O)C(C(F)(F)F)(C(F)(F)F)C(F)(F)F)c1`, the melting point worked out at 188 °C.

Regarding `O=C(O)C=CC(=O)Nc1ccc(Cl)cc1Cl`, the melting point stood at 178 °C.

Take `CCOC(=O)C(C(C)=O)C(=O)/C=C/c1ccc(OC)c(OCc2ccccc2)c1` (configuration not stated): the melting point lay within 207 to 208 °C.

`CC(Cc1ccc(O)c(O)c1)C(C)Cc1ccc(O)c(O)c1` (configuration not stated) displayed a melting point of 186 °C.

The molecule `Nc1ccc([N+](=O)[O-])cc1O` gave a melting point of 208 °C.

The molecule `Clc1ccc2nccnc2c1` displayed a melting point of 64 °C.

Molecule `CC(=O)N(c1ccccc1)c1ccccc1` gave a melting point of 103 °C.

`O=C(Cl)c1cc(Cl)cc(Cl)c1` returned a melting point of 40 °C.

In turn, `O=C(CNC(=O)OCC1c2ccccc2-c2ccccc21)Oc1c(F)c(F)c(F)c(F)c1F` gave a melting point of 159 to 160 °C.

Molecule `CCCCC(N)C(=O)O` (configuration not stated) returned a melting point of 300 °C.

`O=Cc1cc([N+](=O)[O-])cc([N+](=O)[O-])c1O`: the melting point worked out at 72.5 °C.

Turning to `COc1cc(CCC(=O)O)cc(OC)c1OC`, the melting point amounted to 104 °C.

In turn, `Cc1ccccc1OP(=O)(Oc1ccccc1C)Oc1ccccc1C` showed a melting point of -25 °C.

Turning to `Cc1cc2c(o1)-c1c(oc3c(Br)cc(Br)cc13)CCC2C` (configuration not stated), the melting point amounted to 121 °C.

`O=Cc1ccsc1` displayed a melting point of -30 °C.

`O=C(O)C1CCCN1` (configuration not stated) displayed a melting point of 228 to 233 °C.

`Nc1cc(C(=O)O)cc(C(=O)O)c1` yielded a melting point of 360 °C.

For the molecule `O=C(Cl)c1ccc(Cl)nc1`, the melting point is 50 °C.

Molecule `N#CCN=C(c1ccccc1)c1ccccc1` showed a melting point of 83 to 86 °C.

Molecule `CC(C)=CCCC(C)=CCO` had a melting point of 50 °C.

In the case of `Clc1ccc2c(c1)Oc1cc(Cl)c(Cl)cc1O2`, the melting point stood at 162 °C.

`CC(C)Oc1ccc2c(=O)c(-c3ccccc3)coc2c1` registered a melting point of 115 °C.

Take `COC(=O)c1cc2c(=O)oc3ccccc3c2nc1N`: the melting point is 263 to 265 °C.

For `Fc1cccc(Cl)c1CCl`, the melting point was determined as 7 °C.

For the molecule `Cc1cccc2c1CCCC2`, the melting point was -23 °C.

The molecule `O=C(c1ccc(F)cc1)C1CCN(CCn2c(=O)[nH]c3ccccc3c2=O)CC1` gave a melting point of 231 °C.

For `O=P(O)(O)CCP(=O)(O)O`, the melting point is 218 °C.

Turning to `CC(=O)Nc1ccc(/C(=C\c2ccccc2NC(C)=O)C(=O)O)cc1`, the melting point was 240 °C.

As to `CC(C)CCOC(=O)C=Cc1ccc(C=CC(=O)OCCC(C)C)c([N+](=O)[O-])c1`, the melting point lay in the range of 93 to 94 °C.

Consider `N#C/C(=N\Nc1ccc(Cl)cc1)c1nc2ccccc2s1`, for which the melting point is 188 °C.

For `O=C1C=CC(=O)N1c1cccnc1Cl`, the melting point is 115 to 117 °C.

`N#Cc1ccc(C=Cc2ccccc2C=O)c([N+](=O)[O-])c1`: the melting point turned out to be 210 °C.

The molecule `CC(CN(C)C)CN1c2ccccc2CCc2ccccc21` (configuration not stated) registered a melting point of 45 °C.

As for `O=C(O)c1ccccc1C(=O)c1ccc(F)cc1`, the melting point lay in the range of 140 to 141 °C.

Turning to `Oc1ccc(F)c(F)c1F`, the melting point turned out to be 32 °C.

Molecule `O=C1OCCOC(=O)c2ccccc2C(=O)OCCOC(=O)c2ccccc21` registered a melting point of 192 °C.

`CCCCCCCCCBr` displayed a melting point of -29 °C.

Turning to `CCN1CC2(COC)C(O)CC(OC)C34C5CC6(O)C(O)C5C(O)(C(O)C6OC)C(C(OC)C23)C14` (configuration not stated), the melting point came to 132 °C.

Regarding `CC(Oc1ccc(Cl)cc1Cl)C(=O)O` (configuration not stated), the melting point was 122 °C.
